The values below come from ChEMBL document CHEMBL1795249, “Triazole-linked reduced amide isosteres: an approach for the fragment-based drug discovery of anti-Alzheimer's BACE1 inhibitors” (Bioorg Med Chem Lett, 2011).

This test has as its target Beta-secretase 1 (Homo sapiens, UniProt P56817). Kind of test: Inhibition of BACE1 by cell-free FRET assay.

Chain of Beta-secretase 1 (P56817 whole entry): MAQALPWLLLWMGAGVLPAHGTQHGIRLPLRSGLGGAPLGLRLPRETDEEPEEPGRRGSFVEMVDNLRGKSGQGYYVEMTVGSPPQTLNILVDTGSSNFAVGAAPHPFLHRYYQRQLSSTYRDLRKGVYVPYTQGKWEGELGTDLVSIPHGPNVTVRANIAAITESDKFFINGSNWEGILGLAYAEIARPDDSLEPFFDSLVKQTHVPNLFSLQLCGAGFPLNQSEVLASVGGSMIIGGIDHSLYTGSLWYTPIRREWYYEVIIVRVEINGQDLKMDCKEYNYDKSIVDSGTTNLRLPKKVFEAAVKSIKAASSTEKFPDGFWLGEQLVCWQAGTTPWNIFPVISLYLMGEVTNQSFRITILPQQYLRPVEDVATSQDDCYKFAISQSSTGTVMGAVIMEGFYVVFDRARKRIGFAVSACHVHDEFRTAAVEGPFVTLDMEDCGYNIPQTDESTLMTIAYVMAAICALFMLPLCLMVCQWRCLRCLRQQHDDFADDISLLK

The term IC50 denotes the midpoint of a concentration-inhibition curve. The low end stands for higher potency, the high end for lower potency. In the case of `COc1cccc(CNC[C@H](Cc2ccccc2)n2cc(-c3cc(C(=O)N[C@H](C)c4ccccc4)cc(N(C)S(C)(=O)=O)c3)nn2)c1`, half-maximal inhibition (IC50) was put at 7000 nM.

`C[C@@H](NC(=O)c1cc(-c2cn([C@H](CNCc3cccc(Br)c3)Cc3ccccc3)nn2)cc(N(C)S(C)(=O)=O)c1)c1ccccc1` registered a half-inhibitory concentration (IC50) of 2000 nM.

The molecule `C#Cc1cccc(NC2CC(O)C(Nc3cccc(-c4cn([C@H](CNCc5cccc(Br)c5)Cc5ccccc5)nn4)c3)CC2O)c1` (mixture of isomers) returned an IC50 of 3400 nM.

In the case of `C#Cc1cccc(NC2CC(Nc3cccc(-c4cn([C@H](CNCc5cccc(Br)c5)Cc5ccccc5)nn4)c3)C(O)CC2O)c1` (mixture of isomers), 2400 nM corresponded to half-maximal inhibition (IC50).
